Laboratory results taken from patent US20040242508A1, “Novel hydroxyalkyl indolocarbazole derivatives, preparation method and pharmaceutical compositions containing the same” (priority 2001, published 2004).

Experiments:
[1] = target: CDK5/p25 complex (Homo sapiens, UniProt Q00535); test: Inhibitory activity in respect of CDK5; assay type: biochemical; settings: CDK5 activated by p25 (1/1 mixture), measured as for CDK1/cyclin B
Procedure: CDK5 was expressed in E. coli in the form of a GST (Glutathione-S-transferase) fusion protein and purified on a glutathione-agarose affinity column. CDK5 is then activated by p25 (1/1 mixture), prepared in the same manner. The enzymatic activity of the CDK5/p25 complex is measured as described above for CDK1/cyclin B. The IC50 values are estimated from dose-response curves.

[2] = test system: CDK1/cyclin B; test: Inhibitory activity in respect of CDK-1; assay type: biochemical, starfish (Marthasterias glacialis); settings: histone H1 substrate, 15 μM ATP, 10 minutes at 30° C.
Procedure: The enzyme was purified from a starfish (Marthasterias glacialis) oocyte homogenate at M phase as described in Eur. J. Biochem, 1997, 243, 527-536 and J. Biol. Chem.,1999, 274, 11977-11986. The reaction mixture comprises, in a volume of 30 μl: 1 mg/ml of histone H1 as substrate, 15 μM [γ-^32P]ATP (3000 Ci/mmol, 1 mCi/ml), 15 mM MgCl2, 60 mM β-glycerophosphate, 15 mM p-nitrophenylphosphate, 25 mM MOPS pH=7.2, 5 mM EGTA, 1 mM DTT, 1 mM sodium vanadate, and the inhibitor at a given concentration. After 10 minutes' incubation at 30° C., 25 μl of the reaction mixture are removed and treated as described above in the GSK-3 protocol. The IC50 values are estimated from dose-response curves.

[3] = target: T1, Glycogen synthase kinase 3 (Rattus norvegicus, UniProt P18266); test: Inhibitory activity in respect of GSK-3; assay type: biochemical; settings: GS-1 peptide substrate, 15 μM ATP, 30 minutes at 30° C.
T1 construct: made in house; host or cells: Sf9 insect cells
Procedure: Glycogen synthase kinase 3 was purified starting from Sf9 cells transfected as described in Eur. J. Biochem., 1992, 305-311. The reaction mixture comprises, in a final volume of 30 μl: 1 mg/ml of BSA, 10 mM DTT, 6.7 μM GS-1 peptide as substrate, 15 μM [γ-^32P]ATP (3000 Ci/mmol, 1 mCi/ml), 10 mM MgCl2, 1 mM EGTA, 25mM Tris-HCl pH=7.5, 50 μg/ml of heparin, and the inhibitor at a given concentration. After 30 minutes at 30° C., 25 μl of the mixture are deposited on Whatman® P81 phosphocellulose paper filters, which are then washed 5 times with 10 ml of phosphoric acid (10 ml/l). The radioactivity of the filters is then counted in the presence of 1 ml of scintillation liquid. The IC50 values are estimated from dose-response curves.

Chain of CDK5/p25 complex (Q00535 whole entry, species assumed, the tested form may be a part): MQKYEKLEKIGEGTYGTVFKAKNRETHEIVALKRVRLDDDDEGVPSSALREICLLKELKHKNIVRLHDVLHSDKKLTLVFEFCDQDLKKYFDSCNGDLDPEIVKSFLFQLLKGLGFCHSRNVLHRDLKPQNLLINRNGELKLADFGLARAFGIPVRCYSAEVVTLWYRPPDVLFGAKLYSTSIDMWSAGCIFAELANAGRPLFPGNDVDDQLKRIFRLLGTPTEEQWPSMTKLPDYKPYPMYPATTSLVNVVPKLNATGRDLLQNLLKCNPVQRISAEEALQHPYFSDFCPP
Chain of CDK5/p25 complex (Q15078 99-307 partner limits assumed, species assumed): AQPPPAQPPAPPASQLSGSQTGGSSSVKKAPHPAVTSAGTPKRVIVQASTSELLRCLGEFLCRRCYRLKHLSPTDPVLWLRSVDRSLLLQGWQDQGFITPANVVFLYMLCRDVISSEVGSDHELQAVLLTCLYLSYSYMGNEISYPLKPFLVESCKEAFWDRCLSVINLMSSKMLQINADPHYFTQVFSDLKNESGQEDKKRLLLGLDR
T1 sequence (P18266 whole entry): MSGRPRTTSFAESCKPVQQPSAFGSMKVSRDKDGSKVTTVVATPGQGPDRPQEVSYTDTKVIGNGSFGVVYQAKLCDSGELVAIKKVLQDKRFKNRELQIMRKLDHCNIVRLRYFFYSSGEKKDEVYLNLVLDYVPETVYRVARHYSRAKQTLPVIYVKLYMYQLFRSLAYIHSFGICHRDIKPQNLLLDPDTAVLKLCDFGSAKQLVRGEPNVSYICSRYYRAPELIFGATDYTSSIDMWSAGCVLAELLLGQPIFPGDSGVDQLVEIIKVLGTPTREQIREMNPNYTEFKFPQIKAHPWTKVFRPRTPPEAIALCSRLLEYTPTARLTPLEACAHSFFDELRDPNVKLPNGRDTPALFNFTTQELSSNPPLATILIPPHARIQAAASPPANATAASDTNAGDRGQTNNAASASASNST

IC50 [1]: > 5 µM | IC50 [2]: > 5 µM | IC50 [3]: 0.03 µM
Structure (SMILES): CO[C@H]1[C@H](O)[C@@H](O)[C@H](n2c3ccc(CO)cc3c3c4c(c5c6cc(CO)ccc6[nH]c5c32)C(=O)NC4=O)O[C@@H]1CO [Example 1, 3,9-bis(hydroxymethyl)-1 2-(4-O-methyl-β-D-glucopyranosyl)-12,13-dihydro-5H-indolo[2,3-a]pyrrolo[3,4-c]carbazole-5,7(6H)-dione]
